From patent US20140364417A1, “METHOD OF TREATING ATRIAL FIBRILLATION” (Gilead Sciences, Inc., priority 2013, published 2014)

Assays:
[1] = system: Guinea Pig Isolated Hearts; experiment: S-H interval (AV nodal conduction) in guinea pig isolated, Langendorff-perfused paced hearts; settings: for second-degree AV block (dropped beats): isolated paced hearts, drug alone; for increase in the S-H interval compared to control (no drug): ivabradine 0.1 μM, ranolazine 2 μM, alone or combined, pacing rate of 4 and 5 Hz, FIG. 1
Excerpt: To test the combined effects of ranolazine and ivabradine on AV conduction, the following experimental procedures were employed.
Guinea pigs (Hartley) of either sex weighing 300-350 g were anesthetized by inhalation of isoflurane. The chest of a guinea pig was cut open, and the heart was quickly removed and rinsed in ice-cold modified Krebs-Henseleit (K-H) solution. The contents of the modified K-H solution were (in mM) 117.9 NaCl, 4.8 KCl, 2.5 CaCl2, 1.18 MgSO4, 1.2 KH2PO4, 0.5 Na2 EDTA, 0.14 ascorbic acid, 5.5 dextrose, 2.0 pyruvic acid (sodium salt), and 25 NaHCO3. The K-H solution was continuously gassed with 95% O2-5% CO2, and the pH was adjusted to a value of 7.4.
To perfuse the heart by the Langendorff method, the transected aorta was slid onto a glass cannula and secured by a ligature. Retrograde perfusion of the aorta was initiated immediately at a constant flow of 10 mL/min with modified K-H solution warmed to 37.0±0.5° C. A side port in the cannula was used to connect the perfusion line to a pressure transducer (AD Instruments, Australia) for measurement of coronary perfusion pressure (CPP). To facilitate the exit of fluid from the left ventricle, the leaflets of the mitral valve were trimmed with fine spring-handled scissors. Hearts were allowed to beat spontaneously in experiments to measure heart rate, or paced at a constant rate using external electrodes, in experiments to measure AV conduction time. After completion of dissection and instrumentation, stimulus-to-H is bundle (S-H) interval was monitored continuously. Each heart was allowed to equilibrate for 20-40 min before the administration of drug. Experimental interventions were always preceded and followed by control measurements.
To facilitate the recording of a drug effect on the S-H interval, parts of the left and right atrial tissues, including the region of the sinoatrial node, were removed, both to decrease the spontaneous heart rate and to expose the atrial septum for electrode placement. A bipolar Teflon-coated electrode was placed in the wall of the intra-atrial septum to pace the heart. […] Stimuli were provided by a stimulation generator (model 48, Grass Instruments, W. Warwick, R I) and delivered to the heart through a stimulus isolation unit as square wave pulses of 3 msec duration and at least twice the threshold intensity.
A His bundle electrogram was recorded using a Teflon-coated unipolar electrode placed in the right side of the interatrial septum adjacent to the AV junction. […]
Ivabradine (Iva), ranolazine (Ran) or the combination thereof was infused to the hearts. Each concentration of Iva was infused for about 20 min to allow a steady-state response to be recorded, whereas each concentration of ranolazine was infused for 10 min to allow a steady-state response to be recorded. […]

male Yorkshire pigs = experiment: Hemodynamic changes in pigs: sinus rate, mean arterial pressure, left ventricular dP/dt; format: in vivo; settings: for sinus rate after drug: at the time of electrical testing, ivabradine 0.25 mg/kg, before drug 111±4.0 (ivabradine) and 105±5.7 (ranolazine, combination)
Protocol: Data were gathered from male Yorkshire pigs (n=16) weighing 35±2 kg (mean±SEM). The animals were preanesthetized with telazol (4.7 mg/kg, intramuscularly) and then anesthetized with alpha-chloralose (100 mg/kg, i.v., bolus followed by 40 mg/kg/h, i.v., continuous infusion). The animals were intubated and ventilation was maintained between 10-16 breaths/min with volumes between 400-500 mL. Vital signs including core body temperature, heart rate, and oxygen saturation were continuously monitored.
The right and left femoral veins were cannulated with 7Fr introducer sheaths using the Seldinger technique to insert catheters in the right atrial (RA) appendage for pacing and for positioning the intrapericardial catheter. Arterial blood pressure was continuously monitored from a femoral arterial sheath, and intravenous fluids were administered through the ear vein. The electrocardiogram (ECG) was recorded with a Prucka Cardiolab workstation (GE Medical Systems, Milwaukee, Wis.) from atrial and ventricular sites.
Ranolazine was given as a 2.4 mg/kg, i.v., bolus followed by continuous infusion of 0.135 mg/kg/min, i.v.
A nonsteerable, quadripolar electrode catheter (Bard Electrophysiology, Lowell Mass.) was placed in the right atrium (RA) via the femoral vein and a second quadripolar electrode catheter in the right ventricle via the jugular vein. A bipolar electrode was placed in the non-coronary cusp of the aorta through the left carotid artery to record the His bundle electrogram. A pigtail catheter was inserted in the left ventricle via the left femoral artery to record and calculate contractility [left ventricular dP/dt]. Transatrial access was employed to deliver acetylcholine (ACh) into the pericardial space. Specifically, a small puncture was made in the RA appendage with the stiff end of a coronary angioplasty guidewire (0.014-inch Wizdom guidewire, Cordis, Miami, Fla., USA) placed within the lumen of a soft infusion catheter (0.038-inch SOS straight-tip, open-ended angiographic guidewire, Bard Electrophysiology). This wire-within-wire system was advanced as a unit into an 8Fr multipurpose guide catheter (MP2, Boston Scientific, Boston Mass.) previously positioned in the RA appendage via a femoral vein under fluoroscopic guidance and into the pericardial space. The infusion catheter was left in the pericardial space for delivery of ACh and the inner guidewire was removed. Conformation of the infusion catheter on fluoroscopy to the curvature of the heart verified its location within the pericardial space. All of the pericardial fluid was then aspirated with the infusion catheter. Intrapericardial access is associated with a hematocrit <2%, indicating minimum trauma from the atrial puncture (Kumar et al., J Cardiovasc Electrophysiol 2009; 20:796-802). The presence of acetylcholinesterase can rapidly degrade ACh and prevent a sustained response to this neurotransmitter.
The statistical tests were carried out with a SAS statistical package (SAS Institute, Cary, N.C.). Effects on electrophysiologic properties were determined by repeated measures analysis of variance (ANOVA) followed by post-hoc t-tests with Bonferroni correction for multiple comparisons. For mean arterial pressure, heart rate, and dominant frequency during atrial fibrillation, we used paired t-tests to compare effects of agents to baseline. All data are reported as mean±SEM, with P<0.05 considered significant.

[2] = Plasma level determination by LC/MS/MS in pigs; format: in vivo; settings: pig; at the time of testing combined administration with ivabradine
Protocol: Blood samples were collected in sodium heparin tubes at 0 and 30 minutes following ranolazine bolus administration and at 0, 15, and 30 minutes after ivabradine bolus administration. The samples were centrifuged and frozen at −80° C. until drug level determination was performed. Concentrations of ivabradine and ranolazine in plasma were determined at Gilead Sciences, Inc. (Foster City Calif.). Plasma was analyzed using a high-performance liquid chromatography-tandem mass spectrometric assay (LC/MS/MS). The quantification limit of ivabradine was 4 nM (1.87 ng/mL). The dynamic range of quantification was 4-10 000 nM (1.87-4686 ng/mL). Ranolazine and an internal standard were extracted with the protein precipitation extraction method. The dynamic range of quantification for ranolazine was 45.8-23,400.

[3] = Reffelmann and Kloner 2010; Verrier et al 2013; cited from earlier work

COc1ccccc1OCC(O)CN1CCN(CC(=O)Nc2c(C)cccc2C)CC1 (racemic) [ranolazine, (±)-N-(2,6-dimethylphenyl)-4-[2-hydroxy-3-(2-methoxyphenoxy)-propyl]-1-piperazineacetamide]
second-degree AV block (dropped beats) [1]: without causing second-degree AV block | increase in the S-H interval compared to control (no drug) [1]: small but significant increase | sinus rate after drug (male Yorkshire pigs): 96±3.9 beats/min | effect on left ventricular (LV) dP/dt (contractility) (male Yorkshire pigs; pig, in vivo): not altered | effect on mean arterial pressure during sinus rhythm (male Yorkshire pigs; pig, in vivo): Neither ivabradine nor ranolazine given separately altered | plasma level of ranolazine [2]: 9.8 ± 1.5 µM | steady-state plasma therapeutic concentration [3]: 2 to 8 µM

COc1cc2c(cc1OC)CC(=O)N(CCCN(C)C[C@H]1Cc3cc(OC)c(OC)cc31)CC2 [ivabradine, 3-{3-[{[(7S)-3,4-dimethoxybicyclo[4.2.0]octa-1,3,5-trien-7-yl]methyll}-(methyl)amino]propyl}-7,8-dimethoxy-1,3,4,5-tetrahydro-2H-3-benzapenin-2-one]
second-degree AV block (dropped beats) [1]: without causing second-degree AV block | increase in the S-H interval compared to control (no drug) [1]: small but significant increase | left ventricular (LV) dP/dt after drug (male Yorkshire pigs; at 30 min after drug, pacing at 180 beats/min, baseline 2156±647.4 (ivabradine) and 1864±109.1 (ranolazine, combination)): 2342±486.5 mmHg/sec | sinus rate after drug (male Yorkshire pigs): 90±3.3 beats/min | effect on mean arterial pressure during sinus rhythm (male Yorkshire pigs; drugs given separately): Neither ivabradine nor ranolazine given separately altered | effect on left ventricular (LV) dP/dt (contractility) (male Yorkshire pigs; pacing at 180 beats/min): not altered
